Entries after “also recorded” stand apart in the source; their conditions may differ.

The values that follow come from US9796674B2, “Benzyl urea derivatives for activating TGF-beta signaling” (THE BOARD OF TRUSTEES OF THE LELAND STANFORD JUNIOR …, priority 2013, dated 2017).

Data set [1] is described as follows: Metabolic stability in human liver microsomes. Type of data set: in vitro ADME. Here is the method:
Metabolic Stability: SRI-011381 (1 and 10 μM) was incubated with human liver microsomes (pooled from several donors) and cofactors.

In data set [2] the test system is TGF-β signaling. Description: F11 SBE-SEAP reporter cell assay. It is filed as cell-based, mouse. To be noted: F11 SBE-SEAP reporter cell line. From the text: In another aspect, methods are provided for treating or preventing the progression of a disease or condition characterized by a reduction in TGF-β signaling. One category of such diseases or conditions is neurodegenerative disorders. One example is Alzheimer's disease (AD), or another disease characterized by the deposition of amyloid plaques and overall accumulation of Aβ in the brain. Experiments performed in support of the present compositions and methods are described, below. • TGF-β reporter gene and cells for screening compounds: An in vitro screening method was developed to identify small-molecule chemical compounds with TGF-β1-like bioactivity. The method utilized a fusion gene consisting of the luciferase or secreted alkaline phosphatase (SEAP) reporter gene under control of the TGF-β responsive Smad-binding element (SBE) minimal promoter sequence, as shown in FIGS. 1A and 1B. To screen for compounds that mimic TGF-β bioactivity, reporter cell lines were prepared by stably-integrating SBE-SEAP into C6 astrocytoma cells, a primary astrocyte line derived from tgfb1^−/− mice, a mouse embryonic fibroblast cell line derived from tgfb1^−/− mice (MFB-F11), and NG108-15 neuroblastoma cells. Such cell lines remained stable for at least 20 passages. Use of a tgfb1^−/− genetic background avoids interference by the […] tgfb1 gene. • Initial compound screening: A library with 5,000 chemically diverse small molecules (average Mr 200 Da) was obtained from Comgenex LLC (South San Francisco, Calif.). […]
The compounds were all tested in the F11 cell activity assay (fibroblast stably transfected with SBE-SEAP construct). […] Compounds with promising activity were evaluated using tier 1 assays such as permeability assays to measure blood-brain barrier transport, metabolic stability assays, and solubility assays. […]

Data set [3] concerns TGF-β signaling. The data set is described as follows: Bioluminescence in SBE-luc reporter mice. Type of data set: in vivo, mouse. Particulars: brain/CNS bioluminescence. Here is the method:
The most promising compounds out of these screens were tested for their neuroprotective potential in B103 rat neuroblastoma cells and primary mouse neurons derived from E16 forebrains. Compounds were also tested for their capacity to reduce varicosities and tortuosity in primary mouse neurons. Accordingly, novel neuroprotectant small molecules have been identified that are as potent or better than TGF-β. Importantly, they fulfilled the critical neuroprotective properties in neuronal cell lines and primary hippocampal mouse neurons. • Compounds based on the 11H core: The present compositions and methods include salts of the active compounds and formulations, in particular pharmaceutically acceptable compositions for administration to an animal or human subject and containing active compounds. 129 analogs or derivatives of 11H were screened by a cell-based assay for their ability to increase TGF-β activity, i.e. to act as a TGF agonist. In particular, one compound (a) designated as SRI-011381 (381) was identified as especially advantageous, although active derivatives thereof are contemplated and have been identified. • Effects of TGF-β analogs in vitro: Some of the small-molecule TGF-β agonist compounds were tested for neuroprotection activity and toxicity in vitro (cell culture). In addition, the mechanism of action of the agonists was explored using cells with different genetic backgrounds with respect to protein of the […] signaling pathway. • Animal studies: Transgenic mice harboring the SBE-luc reporter gene were generated and used to test the derivatives of compound 11H in vivo. These “reporter mice” mice express SBE-luc (i.e., “the transgene”) in all cells of the body. Intraperitoneal injection of luciferin into SBE-luc-expressing mice produces bioluminescence generated by luciferase and photons penetrating the skull can be imaged using sensitive camera systems.
SBE-luciferase transgenic mice: Two-month old SBE-luciferase transgenic mice receive different concentrations of a test compound either s.q., ip., or orally by gavage. […] Following administration of the test or control compounds, mice are injected with luciferin ip. At, for example, 2, 8, and 16 hours following injection of luciferin, the mice are imaged to detect bioluminescence as described above. Brains may be harvested 16 hours following test compound injection, and may be divided sagittally. For example, one hemi-brain can be homogenized in luciferase assay buffer for measurement of reporter gene activation, while the other hemi-brain can be frozen at −70° C. for future study, including sectioning into individual brain regions

The test system of a further data set is B103 neuroblastoma cells. The data set is described as follows: B103 live/dead cell assay with Aβ. It is filed as cell-based, rat. To be noted: for cell survival, protection relative to TGF-β1: percentage of live cells / percentage of rescue. Here is the method:
SRI-11381 is neuroprotective in vitro: To determine if the TGF-β-inducing capacity of SRI-011381 would translate into biologically beneficial effects, its neuroprotective potential was tested in B103 rat neuroblastoma cells and primary mouse neurons derived from E16 forebrains. B103 neuroblastoma cells were cultured in 24-well plates and exposed to an oligomeric preparation of Aβ together with compounds or recombinant TGF-β.
FIGS. 3A-3H illustrate that SRI-011381 protects cultured neurons from Aβ toxicity. B103 neuroblastoma cells were incubated with Aβ for 24 h. The compounds and TGF-β were added 2 h before Aβ. Following incubations live and dead cells were assessed with calcein-acetoxymethylester (CAM) and SYTOX Orange (Invitrogen), respectively.
B103 neuroblastoma cells: B103 neuroblastoma cells were cultured in Dulbecco's modified Eagle's medium containing 10% fetal calf serum and 1% v/v penicillin/streptomycin (Invitrogen) in a 5% CO2: 95% air atmosphere. 10^4 cells/well were seeded onto 24 well plates and cultured for 24 h before Aβ was added. The compounds and TGF-β were added 2 h before Aβ. Following a 24 h incubation with Aβ, live and dead cells were assessed using calcein-acetoxymethylester (CAM) and SYTOX Orange (Invitrogen), respectively. AM is a membrane-permeable, fluorogenic esterase substrate that is hydrolyzed intracellularly to a green fluorescent product (calcein) in live cells. SYTOX Orange is a high-affinity nucleic acid stain that easily penetrates cells with compromised plasma membranes and yet will not cross the membranes of live cells. After incubation with SYTOX Orange, the nucleic acids of dead cells fluoresce bright orange. […] Five fields were randomly selected from each well and the cell numbers were analyzed by ImageJ (NIH) in a blinded fashion.

In the case of `O=C(NC1CCCCC1)N(Cc1ccccc1)CC1CCNCC1` [SRI-011381, 1-Benzyl-3-cyclohexyl-1-(piperidin-4-ylmethyl)urea], in data set [1] (1 and 10 μM, after 60 min), the compound unchanged entry is “Approximately 80%”. In addition, the “activity in the reporter cell assay” value in the data set with TGF-β signaling [2] is reported as “showed activity”; with TGF-β signaling [2] (listed as 381), “activates TGF-β signaling in reporter cell line”. Moreover, the “activation of TGF-β signaling in SBE-luc reporter mice” value is “penetrate into the CNS and activate TGF-β signaling; also recorded: bioavailable in the CNS and activate TGF-β signaling; also recorded: activates TGF-β signaling in the brain” in the data set with TGF-β signaling [3]; “activates TGF-β signaling in reporter mice” in the data set with TGF-β signaling [3] (listed as 381). Moreover, the “cell survival, protection relative to TGF-β1” value in the data set with B103 neuroblastoma cells is “better protection than TGF-β1”.
`O=C(NC1CCCCC1)N(C/C=C/c1ccc(F)cc1)CC1CCNCC1` [SRI-011382]: the metabolic stability entry in data set [1] is given as “desirable level of metabolic stability”. For the same compound, in the data set on TGF-β signaling [2], the “activity in the reporter cell assay” value is recorded as “superior activity”. Moreover, the “activation of TGF-β signaling in SBE-luc reporter mice” value in the data set on TGF-β signaling [3] was “bioavailable in the CNS and activate TGF-β signaling”. In addition, the “cell survival, protection” value in the data set with B103 neuroblastoma cells (1 μM, 5 μM Aβ) is listed as “slightly lower protection”. Besides, the “cell survival, protection relative to TGF-β” value with B103 neuroblastoma cells (3 μM, TGF-β 1 ng/ml) was “better protection than TGF-β”. In the data set on B103 neuroblastoma cells (Aβ 24 h, added 2 h before Aβ), the Aβ-induced cell death entry is “inhibit Aβ-induced cell death”. Further, the “cell survival, protection relative to TGF-β1” value in the data set on B103 neuroblastoma cells is reported as “better protection than TGF-β1”.
